Data taken from patent US20030176456A1, “Methods for reducing alcohol cravings in chronic alcoholics” (priority 2001, published 2003).
Where two headings read alike, the source gives them in different places.

Legend:
α1β3γ2 GABAA receptor = molecular target: T1, α1β3γ2 GABAA receptor (Homo sapiens, UniProt P14867+P18507); test: Binding affinity at recombinant GABAA receptors (Ltk cells stably transfected)
T1 construct: expressed in transfected cells

α2β3γ2 GABAA receptor = molecular target: T2, α2β3γ2 GABAA receptor (Homo sapiens, UniProt P18507+P47869); test: as above
T2 construct: expressed in transfected cells
T2 sequence (P47869 29-451): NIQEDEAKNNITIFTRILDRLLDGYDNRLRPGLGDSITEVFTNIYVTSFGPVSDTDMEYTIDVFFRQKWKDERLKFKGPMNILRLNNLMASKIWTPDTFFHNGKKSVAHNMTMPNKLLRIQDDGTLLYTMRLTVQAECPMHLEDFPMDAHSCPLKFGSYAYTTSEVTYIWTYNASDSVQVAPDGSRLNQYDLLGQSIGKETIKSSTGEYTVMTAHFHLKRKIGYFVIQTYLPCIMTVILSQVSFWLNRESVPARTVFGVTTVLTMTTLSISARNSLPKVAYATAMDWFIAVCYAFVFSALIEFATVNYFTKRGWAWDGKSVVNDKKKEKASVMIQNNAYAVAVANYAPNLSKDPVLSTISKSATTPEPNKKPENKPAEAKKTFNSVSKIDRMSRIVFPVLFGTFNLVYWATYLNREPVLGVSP
T2 sequence (P28472 26-473 partner): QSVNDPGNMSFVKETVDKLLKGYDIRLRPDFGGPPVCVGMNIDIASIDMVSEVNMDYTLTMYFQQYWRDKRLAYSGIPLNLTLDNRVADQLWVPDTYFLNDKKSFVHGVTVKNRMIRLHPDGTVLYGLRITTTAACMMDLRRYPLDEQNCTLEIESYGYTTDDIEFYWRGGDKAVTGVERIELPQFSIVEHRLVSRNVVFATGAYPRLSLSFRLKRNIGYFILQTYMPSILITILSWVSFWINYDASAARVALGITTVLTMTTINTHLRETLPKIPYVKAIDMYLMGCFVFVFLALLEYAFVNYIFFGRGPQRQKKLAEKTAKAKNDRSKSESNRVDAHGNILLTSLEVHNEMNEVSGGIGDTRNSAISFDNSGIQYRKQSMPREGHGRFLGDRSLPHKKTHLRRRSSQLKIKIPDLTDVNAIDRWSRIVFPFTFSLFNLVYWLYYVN
T2 sequence (P18507 40-475): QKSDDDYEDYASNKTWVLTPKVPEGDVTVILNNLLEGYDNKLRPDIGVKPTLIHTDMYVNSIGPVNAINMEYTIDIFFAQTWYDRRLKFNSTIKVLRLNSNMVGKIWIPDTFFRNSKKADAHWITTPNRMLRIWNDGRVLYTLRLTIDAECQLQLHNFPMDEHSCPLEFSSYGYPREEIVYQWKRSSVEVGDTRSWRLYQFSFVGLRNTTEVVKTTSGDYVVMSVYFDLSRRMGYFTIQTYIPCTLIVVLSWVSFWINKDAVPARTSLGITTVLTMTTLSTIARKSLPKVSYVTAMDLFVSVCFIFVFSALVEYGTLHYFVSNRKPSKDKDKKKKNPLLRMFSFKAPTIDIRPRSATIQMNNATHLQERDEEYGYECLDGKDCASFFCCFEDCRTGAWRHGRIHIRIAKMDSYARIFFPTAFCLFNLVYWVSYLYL

α3β3γ2 GABAA receptor = molecular target: T3, α3β3γ2 GABAA receptor (Homo sapiens, UniProt P18507+P34903); test: as above
T3 construct: expressed in transfected cells
T3 sequence (P34903 29-492): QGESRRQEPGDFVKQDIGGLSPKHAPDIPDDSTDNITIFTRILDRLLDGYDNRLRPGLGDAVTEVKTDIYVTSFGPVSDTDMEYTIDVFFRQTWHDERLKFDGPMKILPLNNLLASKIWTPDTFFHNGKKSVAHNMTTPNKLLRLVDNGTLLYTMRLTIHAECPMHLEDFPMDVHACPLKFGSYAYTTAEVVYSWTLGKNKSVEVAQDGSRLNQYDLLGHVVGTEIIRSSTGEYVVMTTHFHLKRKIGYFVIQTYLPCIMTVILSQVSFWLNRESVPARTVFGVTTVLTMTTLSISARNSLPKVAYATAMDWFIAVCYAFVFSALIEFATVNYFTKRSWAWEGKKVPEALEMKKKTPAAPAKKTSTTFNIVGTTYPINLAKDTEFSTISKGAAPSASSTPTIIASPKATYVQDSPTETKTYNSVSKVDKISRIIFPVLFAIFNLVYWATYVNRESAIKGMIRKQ
T3 sequence (P28472 26-473 partner): as the sequence (P28472 26-473 partner) above
T3 sequence (P18507 40-475): as the sequence (P18507 40-475) above

α5β3γ2 GABAA receptor = molecular target: T4, α5β3γ2 GABAA receptor (Homo sapiens, UniProt P18507+P31644); test: as above
T4 construct: expressed in transfected cells
T4 sequence (P31644 32-462): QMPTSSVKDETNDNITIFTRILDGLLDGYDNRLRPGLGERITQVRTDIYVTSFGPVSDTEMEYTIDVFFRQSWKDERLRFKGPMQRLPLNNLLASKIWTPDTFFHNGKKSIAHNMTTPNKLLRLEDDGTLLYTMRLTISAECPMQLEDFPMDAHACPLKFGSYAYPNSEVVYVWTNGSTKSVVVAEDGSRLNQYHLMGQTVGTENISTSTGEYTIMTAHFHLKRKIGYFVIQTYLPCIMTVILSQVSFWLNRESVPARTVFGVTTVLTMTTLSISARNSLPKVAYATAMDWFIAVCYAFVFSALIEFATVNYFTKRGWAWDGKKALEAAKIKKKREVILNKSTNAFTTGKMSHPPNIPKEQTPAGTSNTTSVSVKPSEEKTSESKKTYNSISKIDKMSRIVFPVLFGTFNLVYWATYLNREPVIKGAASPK
T4 sequence (P28472 26-473 partner): as the sequence (P28472 26-473 partner) above
T4 sequence (P18507 40-475): as the sequence (P18507 40-475) above

α6β3γ2 GABAA receptor = molecular target: T5, α6β3γ2 GABAA receptor (Homo sapiens, UniProt P18507+Q16445); test: as above; details: recombinant αxβ3γ2; read-out: Ki α6
T5 construct: expressed in transfected cells
T5 sequence (Q16445 20-453): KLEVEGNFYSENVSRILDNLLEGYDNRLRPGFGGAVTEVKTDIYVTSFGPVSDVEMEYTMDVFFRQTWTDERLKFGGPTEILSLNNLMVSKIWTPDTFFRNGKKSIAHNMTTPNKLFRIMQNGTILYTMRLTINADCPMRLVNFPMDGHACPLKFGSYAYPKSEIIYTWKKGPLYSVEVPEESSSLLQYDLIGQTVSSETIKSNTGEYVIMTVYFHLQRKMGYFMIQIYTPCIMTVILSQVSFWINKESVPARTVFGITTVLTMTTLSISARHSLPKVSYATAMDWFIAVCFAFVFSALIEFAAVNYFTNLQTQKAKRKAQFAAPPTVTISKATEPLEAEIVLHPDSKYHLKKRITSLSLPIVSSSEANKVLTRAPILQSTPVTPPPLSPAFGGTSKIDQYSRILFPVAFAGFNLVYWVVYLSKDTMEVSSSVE
T5 sequence (P28472 26-473 partner): as the sequence (P28472 26-473 partner) above
T5 sequence (P18507 40-475): as the sequence (P18507 40-475) above

GABAA α3β3γ2 receptors = test: Xenopus oocyte expression assay, modulation of GABA current; type: cell-based, rat; details: saturating 1-10 μM modulator with EC50 GABA (30 μM); mean±S.D.
[1] = tested on: alcohol-preferring (P) rats; test: Operant self-administration, concurrent FR4 schedule for EtOH and saccharin; type: in vivo, rat; details: for EtOH-maintained responding / saccharin-maintained responding: bilateral infusion 5-40 μg in NACC/caudate putamen (neuroanatomical control)
Procedure: Behavioral testing was conducted in 15 standard operant chambers (Coulbourn Instruments) equipped with two removable levers and two dipper fluid delivery systems enclosed in sound-attenuated cubicles as previously described (June et al., 1998a,b). A concurrent fixed-ratio schedule was employed to investigate the capacity of systemic and direct microinjections of 3-PBC in the CNS to modify EtOH and saccharin-maintained responding. The specific details of these procedures have recently been described (June et al., 1998; 1999; 2001). In brief, rats were initially trained to orally self-administer EtOH and water in daily 60 min sessions on a concurrent FRI schedule in a two-lever choice situation. After a period of stabilization on the FRI schedule, the response requirement was increased to a concurrent FR4 schedule and the water reinforcer was replaced with saccharin (0.025-0.05% w/v). The importance of alternative and concurrently presented reinforcers in examining the positive reinforcing properties of drugs of abuse has been discussed previously (Meisch and Lemaire, 1993; June et al., 2001; June in press).
3-PBC was administered 15 min before the operant session to allow for optimal absorption and CNS distribution. […] The duration of the operant sessions was 60 min, however, subjects were tested at 24 and 48 hour post drug administration to determine any residual drug effects. A minimum of 72-96 hours were allocated between drug treatments to permit animals to return to baseline levels. This period prevented confounding of drug treatments due to residual effects (for details see June et al., 1998b).
Guide cannulas were stereotaxically implanted bilaterally in the anterior (AP +0.48; ML ±1.6; DV −7.2, with 6° lateral angle) (n=8) and medial (AP −0.26; ML ±2.5; DV −7.0) (n=6) VP. The neuroanatomical control rats were bilaterally implanted in either the caudate putamen or NACC. The coordinates for the caudate putamen were AP +1.5; ML ±2.5; DV 4.2 (n=3). In the NACC group some rats were implanted in the shell [AP +1.4; ML +0.8; DV −6.0] (n=3) while others were implanted in the core [AP +1.4; ML ±1.7; DV −5.71] (n=3). All coordinates are given in millimeters relative to Bregma based on the Paxinos and Watson (1998) atlas. Subjects were given 7 days to recover from surgery before returning to training in the operant chamber. The 3-PBC infusions were delivered immediately before the operant session with a Harvard infusion pump in aCSF (composition in mM: NaCl, 120; KCl, 4.8; KH2PO4, 1.2; MgSO4, 1.2; NaHCO3, 25; CaCl2, 2.5; d-glucose, 10) as previously described (for details see June et al., 2001).
Statistical Analysis The operant maintained responding data were analyzed by a single factor repeated measures ANOVA with drug treatment (i.e., dose) as the independent factor. The dependent variables were EtOH and saccharin-maintained responding. Each dependent variable was analyzed separately. Post-hoc comparisons between individual drug treatments were made using the Newman Keuls Test in all experiments. In systemic studies, drug treatment comparisons were made against the no injection (e.g., baseline=BL) and Tween-20 vehicle control conditions. In the microinjection studies, drug treatment comparisons were made against the no injection control condition (e.g., baseline=BL) and aCSF control condition. All microinjection data were obtained and analyzed following correct histological verification under a light microscope. To determine the time course of antagonism across the 60 min session, a single factor ANOVA was conducted at each of the six-10 min intervals on the cumulative response data for the respective drug treatment conditions relative to the pooled controlled conditions. EtOH and saccharin maintained responding data were analyzed separately. Post-hoc analyses were performed on the cumulative interval data using the least significant difference (LSD) test. […]

P rats = test: EtOH and sucrose responding after oral (gavage) administration; type: in vivo, rat; details: for responding for sucrose: oral (gavage) 75 mg/kg; for EtOH responding / EtOH responding 24 hours after administration: oral (gavage); for EtOH responding: βCCt 15 & 30 mg/kg, 3-PBC 30-75 mg/kg, naltrexone 30-75 mg/kg; for EtOH responding 24 hours after administration: βCCt 15 & 75 mg/kg
Description: In this study we compared the suppressant effect of βCCt and 3-PBC with naltrexone, a currently used alcohol antagonist on the market. As it is shown in FIG. 29A-B, orally administered βCCt can reduce alcohol responding, however, the effects are not dose related. In addition, 24 hr after administration of βCCt, it continues to reduce alcohol responding with selected doses. […] The suppressant effects of naltrexone in reducing alcohol responding are also dissipated 24 hr after the administration. […] Unlike naltrexone, the suppressant effects observed by βCCt and 3-PBC are selective for alcohol, and not reinforcers in general.

selected rodent lines = test: Plus-maze test in selected rodent lines; type: in vivo; details: particularly at moderate to high doses (>7.5 mg/kg)
rats = test: Reversal of suppression produced by chlordiazepoxide; type: in vivo, rat; details: 7.5 & 15 mg/kg; preliminary studies
squirrel monkeys = details: Rowlett et al., unpublished observation; cited from earlier work
[2] = Rowlett et al., submitted; cited from earlier work
GABAA α5β3γ2 receptors = molecular target: T6, GABAA α5β3γ2 receptors (Rattus norvegicus, UniProt P18508+P19969); test: Xenopus oocyte expression assay, modulation of GABA current; type: cell-based; details: saturating 1-10 μM modulator with EC50 GABA (30 μM); mean±S.D.
T6 construct: expressed in transfected cells; host or cells: Xenopus laevis oocytes injected with cRNA
T6 sequence (P19969 32-464 limits assumed): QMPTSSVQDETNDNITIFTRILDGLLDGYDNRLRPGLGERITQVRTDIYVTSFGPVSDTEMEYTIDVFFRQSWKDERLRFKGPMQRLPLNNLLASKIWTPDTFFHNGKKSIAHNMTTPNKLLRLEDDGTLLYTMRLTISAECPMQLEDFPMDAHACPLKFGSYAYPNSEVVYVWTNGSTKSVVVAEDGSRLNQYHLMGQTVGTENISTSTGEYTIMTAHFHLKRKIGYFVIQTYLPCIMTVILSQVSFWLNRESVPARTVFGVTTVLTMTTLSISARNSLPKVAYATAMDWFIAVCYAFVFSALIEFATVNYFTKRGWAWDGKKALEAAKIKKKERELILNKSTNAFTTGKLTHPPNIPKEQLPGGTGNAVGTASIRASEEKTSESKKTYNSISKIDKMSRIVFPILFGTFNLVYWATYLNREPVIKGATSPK
T6 sequence (P63079 26-473 partner): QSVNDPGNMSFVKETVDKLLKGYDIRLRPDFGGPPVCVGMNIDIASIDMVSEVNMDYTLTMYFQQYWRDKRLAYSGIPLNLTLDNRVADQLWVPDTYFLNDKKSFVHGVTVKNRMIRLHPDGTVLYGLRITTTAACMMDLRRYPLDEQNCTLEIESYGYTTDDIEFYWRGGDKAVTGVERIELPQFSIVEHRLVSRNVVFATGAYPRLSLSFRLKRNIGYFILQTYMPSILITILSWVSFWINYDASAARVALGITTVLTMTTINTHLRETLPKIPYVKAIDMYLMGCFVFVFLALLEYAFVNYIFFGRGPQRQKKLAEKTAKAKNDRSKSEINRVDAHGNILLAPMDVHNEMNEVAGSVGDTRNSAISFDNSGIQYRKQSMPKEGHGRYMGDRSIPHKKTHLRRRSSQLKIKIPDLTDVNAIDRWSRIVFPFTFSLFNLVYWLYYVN
T6 sequence (P18508 39-466): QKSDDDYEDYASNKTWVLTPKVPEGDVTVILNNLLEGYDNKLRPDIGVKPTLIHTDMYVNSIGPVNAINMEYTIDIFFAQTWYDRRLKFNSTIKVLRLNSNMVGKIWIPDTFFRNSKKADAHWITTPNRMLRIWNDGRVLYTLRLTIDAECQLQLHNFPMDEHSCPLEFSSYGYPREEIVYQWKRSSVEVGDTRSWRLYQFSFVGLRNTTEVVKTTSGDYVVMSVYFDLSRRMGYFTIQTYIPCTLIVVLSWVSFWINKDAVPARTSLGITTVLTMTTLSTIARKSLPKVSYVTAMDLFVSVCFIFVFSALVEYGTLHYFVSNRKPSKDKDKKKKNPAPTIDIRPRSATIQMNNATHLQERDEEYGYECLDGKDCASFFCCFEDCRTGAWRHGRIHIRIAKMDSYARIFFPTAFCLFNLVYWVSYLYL

[3] = bilateral infusion in ventral pallidum (VP), 3-PBC 0.5-40 μg, βCCt 5-40 μg
[4] = i.p. 15 min before 60 min session, 3-PBC 1-20 mg/kg, βCCt 5-40 mg/kg
[5] = i.p., 3-PBC 1-10 mg/kg, βCCt 5-40 mg/kg

T1 sequence (P14867 28-456): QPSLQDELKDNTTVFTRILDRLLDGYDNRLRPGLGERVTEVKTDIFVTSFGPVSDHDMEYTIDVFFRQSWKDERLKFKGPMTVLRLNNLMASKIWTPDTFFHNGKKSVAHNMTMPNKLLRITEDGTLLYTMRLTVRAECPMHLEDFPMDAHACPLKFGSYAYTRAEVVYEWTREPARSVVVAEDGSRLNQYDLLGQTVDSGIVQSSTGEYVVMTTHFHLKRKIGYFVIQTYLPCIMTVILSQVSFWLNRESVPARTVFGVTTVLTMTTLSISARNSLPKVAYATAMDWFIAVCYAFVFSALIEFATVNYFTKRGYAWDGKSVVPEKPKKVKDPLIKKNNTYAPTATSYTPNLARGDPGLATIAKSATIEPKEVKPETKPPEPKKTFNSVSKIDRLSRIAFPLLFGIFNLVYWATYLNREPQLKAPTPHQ
T1 sequence (P28472 26-473 partner): as the sequence (P28472 26-473 partner) above
T1 sequence (P18507 40-475): as the sequence (P18507 40-475) above

Structure (SMILES)	Ki (α6β3γ2 GABAA receptor) [µM]	% of GABA response, α3 (GABAA α3β3γ2 receptors) [%]	EtOH-maintained responding [1]	saccharin-maintained responding [1]	saccharin-maintained responding, total session ([1]; bilateral infusion in VP)	EtOH-maintained responding, total session [1, 3]	EtOH-maintained responding, total session [1, 4]	saccharin-maintained responding, total session [1, 5]	responding for sucrose (P rats)	EtOH responding (P rats)	EtOH responding 24 hours after administration (P rats)	anxiolytic effects in the plus-maze test (selected rodent lines)	further results
CCCOc1cc2c(cn1)[nH]c1ccccc12.Cl [3-PBC, 3-Propoxy-β-carboline hydrochloride]	> 1	119±6	without effect	without effect	only the 40 μg dose significantly reduced saccharin responding	dose-dependently reduced	significant dose-related reduction	significant elevation	fails to alter responding for sucrose	dose-dependently reduces EtOH responding	dissipated	capable of producing anxiolytic effects	selectivity for α1 relative to α2 (α1β3γ2 GABAA receptor; binding selectivity): 9.8 fold; selectivity for α1 relative to α3 (α1β3γ2 GABAA receptor; binding selectivity): 13 fold; selectivity for α1 relative to α5 (α1β3γ2 GABAA receptor; binding selectivity): 111 fold; Ki (α1β3γ2 GABAA receptor; recombinant αxβ3γ2, read-out: Ki α1): 0.0053 µM; Ki (α2β3γ2 GABAA receptor; recombinant αxβ3γ2, read-out: Ki α2): 0.0523 µM; Ki (α3β3γ2 GABAA receptor; recombinant αxβ3γ2, read-out: Ki α3): 0.0688 µM; Ki (α5β3γ2 GABAA receptor; recombinant αxβ3γ2, read-out: Ki α5): 0.591 µM; cumulative within session alcohol responding ([1]; VP infusion, initial 10 and 20 min intervals): significant reduction; saccharin-maintained responding, total session ([1]; i.p. 20 mg/kg): significantly suppressed; cumulative within session EtOH responding ([1]; i.p., first 10, 20 and 30 min intervals): suppressed the initiation of EtOH responding; reversal of suppression produced by chlordiazepoxide (2.5-10 mg/kg) (rats): reversed the suppression produced by chlordiazepoxide; activity in observational studies vs saline controls (squirrel monkeys): inactive; antagonism in zolpidem discrimination [2]: surmountable antagonism
CC(C)(C)OC(=O)c1cc2c(cn1)[nH]c1ccccc12 [βCCt, β-carboline-3-carboxylate t-butyl ester]	> 1	108±6	none of the βCCt treatments altered	none of the βCCt treatments altered	did not alter	dose-dependently reduced	all doses significantly suppressed	without effect	fails to alter responding for sucrose	significantly reduces EtOH responding	significantly reduce EtOH responding	capable of producing anxiolytic effects	Ki (α1β3γ2 GABAA receptor): 0.00072 µM; fold more selective than flumazenil at α1 sites (α1β3γ2 GABAA receptor; binding selectivity): over 20 fold; fold more selective than zolpidem at α1 sites (α1β3γ2 GABAA receptor; binding selectivity): 3.5 fold; Ki (α2β3γ2 GABAA receptor): 0.015 µM; Ki (α3β3γ2 GABAA receptor): 0.0189 µM; Ki (α5β3γ2 GABAA receptor): 0.111 µM; % of GABA response, α5 (GABAA α5β3γ2 receptors): 88±7%; suppression of EtOH responding 24 hr post-drug ([1]; i.p. 40 mg/kg, 24 hr post-drug administration): 76 % of control levels
